Entries after “also recorded” stand apart in the source; their conditions may differ. Non-standard residues stand in square brackets, D forms with d. No end group written: not given here. Pip = O=C(O)[C@@H]1CCCCN1; Aib = CC(C)(N)C(=O)O
Tests used:
[1] = tested on: light-chain immunoglobulin-secreting human multiple myeloma cells; experiment: Inhibition of proliferation of light-chain immunoglobulin-secreting human multiple myeloma cells (bromodeoxyuridine incorporation); assay type: cell-based; details: inhibition of myeloma cell proliferation
Procedure: FIG. 3 is a table listing the EC50 for the inhibitory effects of PACAP38, PACAP27, VIP, and eight novel PACAP analogs on the proliferation of light-chain immunoglobulin-secreting myeloma cells. The light-chain immunoglobulin-secreting human multiple myeloma cells were cultured in RPMI 1640 medium supplemented with 10% non-inactivated fetal bovine serum and 0.05 mM 2-mercaptoethanol. The effects of PACAP38, PACAP27, VIP, and the eight novel PACAP analogs on myeloma cell proliferation were assessed by determining incorporation of bromodeoxyuridine into DNA during cell division. The number of myeloma cells approximately doubled during the 24-hour incubation period in the absence of treatment with PACAP-like peptides. Five different concentrations, ranging from 10^-13 M to 10^-5 M, were tested for PACAP38, PACAP27, VIP, and each of the eight novel PACAP analogs. The EC50 was calculated from the concentration response curve using the software package Prism (Graph Pad, San Diego, CA). Each value represents the mean of four-six determinations per experiment. The EC50 for PACAP38 is based on the average of four separate experiments, while the EC50 for PACAP27 and [Pip^3,Aib ^16,28,Ala^17,Lys^34,D-LysIPACAP 38 (SEQ ID NO: 4) is based on the average of two separate experiments.
FIG. 4 is a graph showing a representative concentration response curve from a single experiment on the inhibitory effects PACAP38 and six PACAP38 analogs on the proliferation of light-chain immunoglobulin-secreting human myeloma cells. Each value represents the mean plus/minus the standard error of four-six determinations. Note that replacing pipecolic acid in position 3 of the novel analogs with either nipecotic acid or isonipecotic acid results in an analog with more than four orders of magnitude lower inhibitory potency.
The effects of PACAP38, PACAP27, VIP, and PACAP analogs on myeloma cell proliferation were assessed by determining incorporation bromodeoxyuridine into DNA during cell division. […]

[2] = tested on: rat renal proximal tubule epithelial cells; experiment: Reduction of cisplatin-induced apoptotic cell death of renal proximal tubule epithelial cells (histone-associated DNA fragmentation); assay type: cell-based; details: cisplatin 24 hours, comparable concentrations
[3] = tested on: ischemia/reperfusion injury to the kidney; experiment: Serum creatinine after renal ischemia/reperfusion injury in mice; assay type: in vivo, male C57BL/6 mice; details: 20 micrograms i.p. 1, 24 and 48 h after start of reperfusion; 45 min renal artery clamping; 72 hours
Procedure: FIG. 6 is a graph showing the effects of PACAP38 and two novel PACAP analogs on serum creatinine levels in mice following ischemia/reperfusion injury to the kidney. The renal artery in male C57BL/6 mice was clamped bilaterally for 45 minutes in all mice except for the sham-operated mice. Twenty micrograms of PACAP38 or one of the PACAP analogs were given intraperitoneally 1 hour after the start of reperfusion and additional doses were given at 24 and 48 hours after the initial dose. The sham-operated group of mice was injected intraperitoneally with PACAP38 on the same schedule as the mice subjected to ischemia/reperfusion. The control group of mice was injected intraperitoneally with the same volume of saline as for the injections of PACAP38 on the same schedule. All of the mice were euthanized 24 hours after the final injection of saline, PACAP38 or one of the novel PACAP analogs. Each value represents the mean plus/minus the standard error of four determinations. **p<0.01 and *p<0.05 compared to the ischemia/reperfusion group treated with saline. I/R, ischemia/reperfusion; sham, sham-operated.

[4] = tested on: human myeloma cell line (MM.1 R); experiment: Proliferation of dexamethasone-resistant myeloma cell line MM.1R (bromodeoxyuridine incorporation); assay type: cell-based; details: FIG. 9
Procedure: FIG. 9 is a graph showing the effects PACAP38, [Pip^3,Ala^14,17,Aib^16,28,Lys^34,D-Lys^38] PACAP38(SEQ ID NO: 6) and dexamethasone on the proliferation of light-chain immunoglobulin-secreting human myeloma cell line (MM.1 R) that was derived from a patient who was being treated for multiple myeloma with a dexamethasome-containing regimen. The light-chain immunoglobulin-secreting multiple myeloma cells were cultured in RPMI 1640 medium supplemented with 10% non-inactivated fetal bovine serum and 0.05mM 2-mercaptoethanol. The effects of dexamethasone, PACAP38 and the novel PACAP38 analog on cell proliferation were assessed by determining the incorporation of bromodeoxyuridine into DNA during cell division. Each value represents the mean plus/minus the standard error of four-six determination. The cell lines in FIGS. 8 and 9 were obtained from the same patient at different stages of the treatment (Greenstein et al., Exp Hematol 31 :271-282, 2003).

[5] = tested on: human renal proximal tubule epithelial cells; experiment: Reduction of gentamicin-induced apoptotic cell death of human renal proximal tubule epithelial cells; assay type: cell-based; details: gentamicin 24 hours
Procedure: The inhibitory effects of PACAP38 and the novel PACAP analog on apoptotic cell death was assessed by the quantitative determination of cytoplasmic histone-associated DNA-fragmentation (mono- and oligonucleosomes) after exposure to gentamicin for 24 hours. […] Each value represents the mean plus/minus the standard deviation of four determinations. **p<0.01 and *p<0.05 compared to the group treated only with gentamicin.

Row | Substance | cytoprotective potency compared with PACAP38 [2] | reversal of the rise in serum creatinine caused by ischemia/reperfusion [3] | other results
1 | PACAP27 |  |  | potency compared with PACAP38 or the novel PACAP38 analogs [1]: significantly less potent
2 | [Pip^3,Aib^16,28,Ala^17,Lys^34,D-Lys^38]PACAP38 (HS[Pip]GIFTDSYSRYRK[Aib]AAVKKYLAAVL[Aib]KRYKQKVKN[dK]-NH2; N-terminus assumed; SMILES CC[C@H](C)[C@H](NC(=O)CNC(=O)[C@@H]1CCCCN1C(=O)[C@H](CO)NC(=O)[C@@H](N)Cc1c[nH]cn1)C(=O)N[C@@H](Cc1ccccc1)C(=O)N[C@H](C(=O)N[C@@H](CC(=O)O)C(=O)N[C@@H](CO)C(=O)N[C@@H](Cc1ccc(O)cc1)C(=O)N[C@@H](CO)C(=O)N[C@@H](CCCNC(=N)N)C(=O)N[C@@H](Cc1ccc(O)cc1)C(=O)N[C@@H](CCCNC(=N)N)C(=O)N[C@@H](CCCCN)C(=O)NC(C)(C)C(=O)N[C@@H](C)C(=O)N[C@@H](C)C(=O)N[C@H](C(=O)N[C@@H](CCCCN)C(=O)N[C@@H](CCCCN)C(=O)N[C@@H](Cc1ccc(O)cc1)C(=O)N[C@@H](CC(C)C)C(=O)N[C@@H](C)C(=O)N[C@@H](C)C(=O)N[C@H](C(=O)N[C@@H](CC(C)C)C(=O)NC(C)(C)C(=O)N[C@@H](CCCCN)C(=O)N[C@@H](CCCNC(=N)N)C(=O)N[C@@H](Cc1ccc(O)cc1)C(=O)N[C@@H](CCCCN)C(=O)N[C@@H](CCC(N)=O)C(=O)N[C@@H](CCCCN)C(=O)N[C@H](C(=O)N[C@@H](CCCCN)C(=O)N[C@@H](CC(N)=O)C(=O)N[C@H](CCCCN)C(N)=O)C(C)C)C(C)C)C(C)C)[C@@H](C)O) [SEQ ID NO:4] | either as effective or more effective than PACAP38 |  | 
3 | [Pip^3,Ala^14,17,Aib^16,28,Lys^34,D-Lys^38]PACAP38 (HS[Pip]GIFTDSYSRYAK[Aib]AAVKKYLAAVL[Aib]KRYKQKVKN[dK]-NH2; N-terminus assumed; SMILES CC[C@H](C)[C@H](NC(=O)CNC(=O)[C@@H]1CCCCN1C(=O)[C@H](CO)NC(=O)[C@@H](N)Cc1c[nH]cn1)C(=O)N[C@@H](Cc1ccccc1)C(=O)N[C@H](C(=O)N[C@@H](CC(=O)O)C(=O)N[C@@H](CO)C(=O)N[C@@H](Cc1ccc(O)cc1)C(=O)N[C@@H](CO)C(=O)N[C@@H](CCCNC(=N)N)C(=O)N[C@@H](Cc1ccc(O)cc1)C(=O)N[C@@H](C)C(=O)N[C@@H](CCCCN)C(=O)NC(C)(C)C(=O)N[C@@H](C)C(=O)N[C@@H](C)C(=O)N[C@H](C(=O)N[C@@H](CCCCN)C(=O)N[C@@H](CCCCN)C(=O)N[C@@H](Cc1ccc(O)cc1)C(=O)N[C@@H](CC(C)C)C(=O)N[C@@H](C)C(=O)N[C@@H](C)C(=O)N[C@H](C(=O)N[C@@H](CC(C)C)C(=O)NC(C)(C)C(=O)N[C@@H](CCCCN)C(=O)N[C@@H](CCCNC(=N)N)C(=O)N[C@@H](Cc1ccc(O)cc1)C(=O)N[C@@H](CCCCN)C(=O)N[C@@H](CCC(N)=O)C(=O)N[C@@H](CCCCN)C(=O)N[C@H](C(=O)N[C@@H](CCCCN)C(=O)N[C@@H](CC(N)=O)C(=O)N[C@H](CCCCN)C(N)=O)C(C)C)C(C)C)C(C)C)[C@@H](C)O) [SEQ ID NO:6] | either as effective or more effective than PACAP38 | almost completely reversed | sensitivity of cell proliferation [4]: still sensitive
4 | [Pip^3,Ala^15,17,Aib^16,28,Lys^34,D-Lys^38]PACAP38 (HS[Pip]GIFTDSYSRYRA[Aib]AAVKKYLAAVL[Aib]KRYKQKVKN[dK]-NH2; N-terminus assumed; SMILES CC[C@H](C)[C@H](NC(=O)CNC(=O)[C@@H]1CCCCN1C(=O)[C@H](CO)NC(=O)[C@@H](N)Cc1c[nH]cn1)C(=O)N[C@@H](Cc1ccccc1)C(=O)N[C@H](C(=O)N[C@@H](CC(=O)O)C(=O)N[C@@H](CO)C(=O)N[C@@H](Cc1ccc(O)cc1)C(=O)N[C@@H](CO)C(=O)N[C@@H](CCCNC(=N)N)C(=O)N[C@@H](Cc1ccc(O)cc1)C(=O)N[C@@H](CCCNC(=N)N)C(=O)N[C@@H](C)C(=O)NC(C)(C)C(=O)N[C@@H](C)C(=O)N[C@@H](C)C(=O)N[C@H](C(=O)N[C@@H](CCCCN)C(=O)N[C@@H](CCCCN)C(=O)N[C@@H](Cc1ccc(O)cc1)C(=O)N[C@@H](CC(C)C)C(=O)N[C@@H](C)C(=O)N[C@@H](C)C(=O)N[C@H](C(=O)N[C@@H](CC(C)C)C(=O)NC(C)(C)C(=O)N[C@@H](CCCCN)C(=O)N[C@@H](CCCNC(=N)N)C(=O)N[C@@H](Cc1ccc(O)cc1)C(=O)N[C@@H](CCCCN)C(=O)N[C@@H](CCC(N)=O)C(=O)N[C@@H](CCCCN)C(=O)N[C@H](C(=O)N[C@@H](CCCCN)C(=O)N[C@@H](CC(N)=O)C(=O)N[C@H](CCCCN)C(N)=O)C(C)C)C(C)C)C(C)C)[C@@H](C)O) [SEQ ID NO:5] | either as effective or more effective than PACAP38 | almost completely reversed | 
5 | [Pip^3]PACAP38 (HS[Pip]GIFTDSYSRYRKQMAVKKYLAAVLGKRYKQRVKNK-NH2; N-terminus assumed; SMILES CC[C@H](C)[C@H](NC(=O)CNC(=O)[C@@H]1CCCCN1C(=O)[C@H](CO)NC(=O)[C@@H](N)Cc1c[nH]cn1)C(=O)N[C@@H](Cc1ccccc1)C(=O)N[C@H](C(=O)N[C@@H](CC(=O)O)C(=O)N[C@@H](CO)C(=O)N[C@@H](Cc1ccc(O)cc1)C(=O)N[C@@H](CO)C(=O)N[C@@H](CCCNC(=N)N)C(=O)N[C@@H](Cc1ccc(O)cc1)C(=O)N[C@@H](CCCNC(=N)N)C(=O)N[C@@H](CCCCN)C(=O)N[C@@H](CCC(N)=O)C(=O)N[C@@H](CCSC)C(=O)N[C@@H](C)C(=O)N[C@H](C(=O)N[C@@H](CCCCN)C(=O)N[C@@H](CCCCN)C(=O)N[C@@H](Cc1ccc(O)cc1)C(=O)N[C@@H](CC(C)C)C(=O)N[C@@H](C)C(=O)N[C@@H](C)C(=O)N[C@H](C(=O)N[C@@H](CC(C)C)C(=O)NCC(=O)N[C@@H](CCCCN)C(=O)N[C@@H](CCCNC(=N)N)C(=O)N[C@@H](Cc1ccc(O)cc1)C(=O)N[C@@H](CCCCN)C(=O)N[C@@H](CCC(N)=O)C(=O)N[C@@H](CCCNC(=N)N)C(=O)N[C@H](C(=O)N[C@@H](CCCCN)C(=O)N[C@@H](CC(N)=O)C(=O)N[C@@H](CCCCN)C(N)=O)C(C)C)C(C)C)C(C)C)[C@@H](C)O) [SEQ ID NO:12] |  |  | cytoprotective potency, PACAP38 versus [Pip^3]PACAP38 [5]: less potent than PACAP38; reduction in gentamicin-induced apoptotic cell death ([5]; various concentrations): significant dose-dependent reduction; also recorded: dose-dependent inhibition
